Assay results taken from ChEMBL document CHEMBL2375222, “Synthesis of 1H-1,2,3-triazole linked β-lactam-isatin bi-functional hybrids and preliminary analysis of in vitro activity against the protozoal parasite Trichomonas vaginalis” (Eur J Med Chem, 2013).
Values belong to the compound of their own block, whether it stands above or below them.

What was measured:
CHO-K1 [1] = assay: Cytotoxicity against CHOK1 cells assessed as change in cell morphology at 100 uM by light microscopy; type: cell-based, Cricetulus griseus; conditions: chinese hamster, cho-k1, 100 µM
Trichomonas vaginalis [2] = assay: […] activity against Trichomonas vaginalis G3 at 10 uM after 24 hrs by hemocytometry; type: functional; conditions: G3, 24 h
Trichomonas vaginalis [3] = assay: […] activity against Trichomonas vaginalis G3 at 100 uM after 24 hrs by hemocytometry; type: functional; conditions: G3, 24 h
Trichomonas vaginalis [4] = assay: […] activity against Trichomonas vaginalis G3 after 24 hrs by hemocytometry; type: functional; conditions: G3, 24 h
CHO-K1 [5] = assay: Cytotoxicity against CHOK1 cells assessed as change in cell morphology by light microscopy; type: cell-based; conditions: Cricetulus griseus

SMILES: Cc1ccc2c(c1)C(=O)C(=O)N2Cc1cn([C@@H]2C(=O)N(c3ccccc3)[C@@H]2/C=C/c2ccccc2)nn1
Activity (CHO-K1 [1]): Toxic
inhibition at 10 µM (Trichomonas vaginalis [2]): 0%
inhibition at 100 µM (Trichomonas vaginalis [3]): 82.6%

IC50 (Trichomonas vaginalis [4]): 27.5 µM
SMILES: Cc1ccc(N2C(=O)[C@@H](n3cc(CN4C(=O)C(=O)c5ccccc54)nn3)[C@H]2/C=C/c2ccccc2)cc1
Activity (CHO-K1 [1]): Toxic
inhibition at 10 µM (Trichomonas vaginalis [2]): 4.9%
inhibition at 100 µM (Trichomonas vaginalis [3]): 100%

SMILES: O=C1C(=O)N(Cc2cn([C@@H]3C(=O)N(C4CCCCC4)[C@@H]3/C=C/c3ccccc3)nn2)c2ccccc21
Activity (CHO-K1 [1]): Toxic
inhibition at 10 µM (Trichomonas vaginalis [2]): 26.8%
inhibition at 100 µM (Trichomonas vaginalis [3]): 100%

SMILES: O=C1C(=O)N(Cc2cn([C@@H]3C(=O)N(Cc4ccccc4)[C@@H]3/C=C/c3ccccc3)nn2)c2ccc(Cl)cc21 (relative stereo)
Activity (CHO-K1 [1]): Toxic
inhibition at 10 µM (Trichomonas vaginalis [2]): 7.3%
inhibition at 100 µM (Trichomonas vaginalis [3]): 67.4%

IC50 (Trichomonas vaginalis [4]): 7.69 µM
SMILES: O=C1C(=O)N(Cc2cn([C@@H]3C(=O)N(c4ccc(F)cc4)[C@@H]3/C=C/c3ccccc3)nn2)c2ccccc21 (relative stereo)
IC50 (CHO-K1 [5]): 7.69 µM
inhibition at 10 µM (Trichomonas vaginalis [2]): 38.5%
inhibition at 100 µM (Trichomonas vaginalis [3]): 100%

SMILES: O=C1C(=O)N(Cc2cn([C@@H]3C(=O)N(c4ccc(F)cc4)[C@@H]3/C=C/c3ccccc3)nn2)c2ccc(F)cc21 (relative stereo)
Activity (CHO-K1 [1]): Toxic
inhibition at 10 µM (Trichomonas vaginalis [2]): 19.5%
inhibition at 100 µM (Trichomonas vaginalis [3]): 100%

SMILES: O=C1C(=O)N(Cc2cn([C@@H]3C(=O)N(c4ccc(F)cc4)[C@@H]3/C=C/c3ccccc3)nn2)c2ccc(Cl)cc21 (relative stereo)
Activity (CHO-K1 [1]): Toxic
inhibition at 10 µM (Trichomonas vaginalis [2]): 14.6%
inhibition at 100 µM (Trichomonas vaginalis [3]): 100%

SMILES: O=C1C(=O)N(Cc2cn([C@@H]3C(=O)N(c4ccc(F)cc4)[C@@H]3/C=C/c3ccccc3)nn2)c2ccc(Br)cc21 (relative stereo)
Activity (CHO-K1 [1]): Toxic
inhibition at 10 µM (Trichomonas vaginalis [2]): 0%
inhibition at 100 µM (Trichomonas vaginalis [3]): 100%

SMILES: O=C1C(=O)N(Cc2cn([C@@H]3C(=O)N(c4ccccc4)[C@@H]3/C=C/c3ccccc3)nn2)c2ccccc21 (relative stereo)
Activity (CHO-K1 [1]): Toxic
inhibition at 10 µM (Trichomonas vaginalis [2]): 100%
inhibition at 100 µM (Trichomonas vaginalis [3]): 100%

IC50 (Trichomonas vaginalis [4]): 7.06 µM
SMILES: O=C1C(=O)N(Cc2cn([C@@H]3C(=O)N(c4ccccc4)[C@@H]3/C=C/c3ccccc3)nn2)c2ccc(F)cc21 (relative stereo)
Activity (CHO-K1 [1]): Toxic
inhibition at 10 µM (Trichomonas vaginalis [2]): 58.5%
inhibition at 100 µM (Trichomonas vaginalis [3]): 100%

IC50 (Trichomonas vaginalis [4]): 9.82 µM
SMILES: O=C1C(=O)N(Cc2cn([C@@H]3C(=O)N(c4ccccc4)[C@@H]3/C=C/c3ccccc3)nn2)c2ccc(Cl)cc21 (relative stereo)
Activity (CHO-K1 [1]): Toxic
inhibition at 10 µM (Trichomonas vaginalis [2]): 61%
inhibition at 100 µM (Trichomonas vaginalis [3]): 100%

IC50 (Trichomonas vaginalis [4]): 9.34 µM
SMILES: O=C1C(=O)N(Cc2cn([C@@H]3C(=O)N(c4ccccc4)[C@@H]3/C=C/c3ccccc3)nn2)c2ccc(Br)cc21 (relative stereo)
Activity (CHO-K1 [1]): Toxic
inhibition at 10 µM (Trichomonas vaginalis [2]): 83%
inhibition at 100 µM (Trichomonas vaginalis [3]): 100%

IC50 (Trichomonas vaginalis [4]): 8.27 µM
SMILES: O=C1C(=O)N(Cc2cn([C@@H]3C(=O)N(c4ccc(Cl)cc4)[C@@H]3/C=C/c3ccccc3)nn2)c2ccccc21 (relative stereo)
Activity (CHO-K1 [1]): Toxic
inhibition at 10 µM (Trichomonas vaginalis [2]): 80.5%
inhibition at 100 µM (Trichomonas vaginalis [3]): 100%

IC50 (Trichomonas vaginalis [4]): 9.94 µM
SMILES: O=C1C(=O)N(Cc2cn([C@@H]3C(=O)N(c4ccc(Cl)cc4)[C@@H]3/C=C/c3ccccc3)nn2)c2ccc(Cl)cc21 (relative stereo)
Activity (CHO-K1 [1]): Toxic
inhibition at 10 µM (Trichomonas vaginalis [2]): 53.7%
inhibition at 100 µM (Trichomonas vaginalis [3]): 100%

IC50 (Trichomonas vaginalis [4]): 22.1 µM
SMILES: Cc1ccc(N2C(=O)[C@@H](n3cc(CN4C(=O)C(=O)c5cc(F)ccc54)nn3)[C@H]2/C=C/c2ccccc2)cc1 (relative stereo)
Activity (CHO-K1 [1]): Toxic
inhibition at 10 µM (Trichomonas vaginalis [2]): 58.5%
inhibition at 100 µM (Trichomonas vaginalis [3]): 100%

IC50 (Trichomonas vaginalis [4]): 10.1 µM
SMILES: Cc1ccc(N2C(=O)[C@@H](n3cc(CN4C(=O)C(=O)c5cc(Cl)ccc54)nn3)[C@H]2/C=C/c2ccccc2)cc1 (relative stereo)
Activity (CHO-K1 [1]): Toxic
inhibition at 10 µM (Trichomonas vaginalis [2]): 48.8%
inhibition at 100 µM (Trichomonas vaginalis [3]): 100%

SMILES: O=C1C(=O)N(Cc2cn([C@@H]3C(=O)N(C4CCCCC4)[C@@H]3/C=C/c3ccccc3)nn2)c2ccc(F)cc21 (relative stereo)
Activity (CHO-K1 [1]): Toxic
inhibition at 10 µM (Trichomonas vaginalis [2]): 0%
inhibition at 100 µM (Trichomonas vaginalis [3]): 100%

SMILES: O=C1C(=O)N(Cc2cn([C@@H]3C(=O)N(C4CCCCC4)[C@@H]3/C=C/c3ccccc3)nn2)c2ccc(Cl)cc21 (relative stereo)
Activity (CHO-K1 [1]): Toxic
inhibition at 10 µM (Trichomonas vaginalis [2]): 7.3%
inhibition at 100 µM (Trichomonas vaginalis [3]): 100%

SMILES: O=C1C(=O)N(Cc2cn([C@@H]3C(=O)N(C4CCCCC4)[C@@H]3/C=C/c3ccccc3)nn2)c2ccc(Br)cc21 (relative stereo)
Activity (CHO-K1 [1]): Toxic
inhibition at 10 µM (Trichomonas vaginalis [2]): 4.9%
inhibition at 100 µM (Trichomonas vaginalis [3]): 100%

IC50 (Trichomonas vaginalis [4]): 44.5 µM
SMILES: Cc1ccc2c(c1)C(=O)C(=O)N2Cc1cn([C@@H]2C(=O)N(C3CCCCC3)[C@@H]2/C=C/c2ccccc2)nn1 (relative stereo)
Activity (CHO-K1 [1]): Toxic
inhibition at 10 µM (Trichomonas vaginalis [2]): 9.8%
inhibition at 100 µM (Trichomonas vaginalis [3]): 95.7%

IC50 (Trichomonas vaginalis [4]): 8.68 µM
SMILES: O=C1C(=O)N(Cc2cn([C@@H]3C(=O)N(Cc4ccccc4)[C@@H]3/C=C/c3ccccc3)nn2)c2ccccc21 (relative stereo)
Activity (CHO-K1 [1]): Toxic
inhibition at 10 µM (Trichomonas vaginalis [2]): 7.8%
inhibition at 100 µM (Trichomonas vaginalis [3]): 100%

SMILES: O=C1C(=O)N(Cc2cn([C@@H]3C(=O)N(Cc4ccccc4)[C@@H]3/C=C/c3ccccc3)nn2)c2ccc(F)cc21 (relative stereo)
Activity (CHO-K1 [1]): Toxic
inhibition at 10 µM (Trichomonas vaginalis [2]): 0%
inhibition at 100 µM (Trichomonas vaginalis [3]): 19.6%
